US20090036495A1, “Combinations Comprising Alpha-2-Delta Ligands and Ep4 Receptor Antagonists” (Pfizer, Inc., priority 2004, published 2009)

Tested on: Male Sprague-Dawley rats
Assay: Carrageenan-induced mechanical hyperalgesia (CIMH), paw withdrawal threshold
Format: in vivo
Settings: rat, per orally
Description: Carrageenan-induced mechanical hyperalgesia (CIMH)[1] is utilized to evaluate analgesic activity of drugs against acute inflammatory pain.
1% carrageenan is prepared at least two days before use. An appropriate amount of λ-carrageenain is weighed into a 10 ml screw vial. Sterile saline is added to make 1% (w/v) suspension solution and the suspension is stirred for 8 hours with gentle heating to be dissolved obtain homogeneous suspension.
Male Sprague-Dawley rats, 4 W (Japan SLC or Charles River Japan), 100-130 g are used. Environment conditions are controlled at a 12-h light/dark cycle with (lights on 076:00 a.m.). and an ambient temperature of 23+/−2 deg. C. Prior to start the experiment, animals are housed under this condition for 4-5 days. Each group is used a group of 6-8 rats. The rats are fasted for 16-18 hours before use and the rats are trained for measurement of mechanical threshold using the apparatus for two days before use.
The paw withdrawal response of the rat to increased pressure on a right hindpaw is recorded as mechanical threshold. The threshold is defined as “pre value”. Hyperalgesia is induced by intraplantar injection of 0.1 ml of 1% carrageenain in the right hindpaw. The paw withdrawal threshold is measured at 3.5 and 4.5 hours after the carrageenan injection. Rats are randomly grouped by the paw withdrawal threshold at 4.5 hours and pre value after the carrageenan injection. Vehicle or test compounds (10 ml of 0.1% methylcellulose/1 kg body weight) are given per orally at 5.5 hours after the carrageenain injection. The paw withdrawal Mechanical threshold is measured by an analgesy meter at 4, 5, 6.5 and 7.5 hours after the carrageenin carrageenan injection. The threshold at 6.5 or 7.5 hours is determined as ‘post value’.
% change in threshold=(preost value−postre value)/(pre value)×100% inhibition=(B−A)/(C−A)×100
A=average of % change in threshold post values in disease control (vehicle treated) group B=average of % change in threshold post values in compound treated group C=average of pre values of all rats used
% inhibition=(A−B)/|A|×100
The data is analyzed with unpaired t-test or one-way ANOVA (plus multiple comparison test) for % change in thresholdpost values. Results are considered significant when p<0.05 versus disease control group.

SMILES	Inhibition (%) 2 hours post dosing (dose 0.3 mg/kg) [%]	Inhibition (%) 2 hours post dosing (dose 1 mg/kg) [%]	Inhibition (%) 2 hours post dosing (dose 3 mg/kg) [%]	Inhibition (%) 2 hours post dosing (dose 10 mg/kg) [%]	Inhibition (%) 2 hours post dosing (dose 30 mg/kg) [%]	Inhibition (%) 2 hours post dosing (dose 100 mg/kg) [%]
C[C@H](NC(=O)c1cc(Cl)cnc1Oc1cccc(F)c1)c1ccc(C(=O)O)cc1 [4-[(1S)-1-({[5-chloro-2-(3-fluorophenoxy)pyridin-3-yl]carbonyl}amino)ethyl]benzoic acid]	19.2	41.9	50	–	–	–
CC(C)C[C@H](CN)CC(=O)O [Pregabalin, (S)-(+)-4-amino-3-(2-methylpropyl)butanoic acid]	–	–	1.6	8.4	16.4	31
